Publication PMC10244169, “Psychedelics promote plasticity by directly binding to BDNF receptor TrkB” (Nature Neuroscience, 2023)

What was measured:
GFP-tagged TrkB Y433F = molecular target: T1, GFP-tagged TrkB Y433F (Rattus norvegicus, UniProt Q63604, Y433F); assay: Microscale thermophoresis (MST) in HEK293T lysates; format: binding; settings: for Bmax (best-fit, 1c/1d) / h (best-fit, 1c/1d): MST Y433F; for binding by MST: Y433F
T1 construct: expressed in transfected cells; host or cells: HEK293T
Procedure: (§1) MST experiments were performed using the Monolith NT.115 (Blue/Red) instrument (NanoTemper Technologies). Lysates of HEK293T cells expressing GFP-tagged TrkB (WT, Y433F, TrkA.TM) were lysed, vortexed, sonicated and centrifuged 24 h after transient transfection and used as a source of fluorescently labeled TrkB, similarly to previously described protocols[11],[45]–[47]. The advantage of this approach is the possibility of studying the proteins in close-to-native conditions. However, the presence of other proteins, lipids, nucleic acids and other components of crude cell lysates can alter the diffusion of biomolecules and therefore binding affinities. High viscosity and background signal typically results in the affinity values being orders of magnitude […] than those of more traditional binding assays. […] The measurements were performed in premium coated capillaries (NanoTemper Technologies, MO-K025) using a LED source with 470 nm and 50% infrared-laser power at 25 °C. Analysis was performed using MO Affinity Analysis 2.3. Results were fitted to specific binding with Hill slope equations from GraphPad Prism 9.2.

eGFP-tagged TrkB (WT) = molecular target: T2, eGFP-tagged TrkB (WT) (Rattus norvegicus, UniProt Q63604); assay: Microscale thermophoresis (MST) in HEK293T lysates; format: binding; settings: for h (best-fit, 1c/1d) / Bmax (best-fit, 1c/1d): MST WT; for Bmax (best-fit, 1c/1d): fit ambiguous; for binding by MST: native (WT) TrkB
T2 construct: expressed in transfected cells; host or cells: HEK293T
Procedure: as §1

GFP-tagged TrkA.TM = assay: Microscale thermophoresis (MST) in HEK293T lysates; format: binding
Procedure: as §1

pERK = assay: Western blot of ERK phosphorylation in cortical neurons; format: cell-based, rat
Procedure: In a separate set of experiments to examine the effect of 5-HT2A activation, M100907 (100 nM) was administered as a 10 min pretreatment and remained in the medium for the rest of the experiment. Next, cells were lysed and centrifuged. […] The co-immunoprecipitation was carried out as previously described[11],[23],[24] with minor modifications. Briefly, Magnetic Dynabeads Protein G (Invitrogen, 10004D) were coated with anti-TrkB antibody (R&D Systems, AF1494) at 200 ng of antibody per 1 µl of beads in rotation (2 h, 4 °C). Finally, lysates were mixed with the coated beads (100 µg of total protein per 15 µl of beads) and incubated in rotation (overnight, 4 °C).
Proteins were separated according to their molecular weight by SDS–PAGE and transferred to a polyvinylidene fluoride membrane. Membranes were incubated with the following primary antibodies (all 1:1,000 in 3% BSA in TBS-T, overnight, 4 °C): anti-TrkB (R&D Systems, AF1494), anti-β-actin (Sigma-Aldrich, A1978), anti-phospho-mTOR (Cell Signaling Technology, 5536S), anti-phospho-p44/42 MAPK (Erk1/2) (Cell Signaling Technology, 9106S), anti-mTOR (Cell Signaling Technology, 2972S) and anti-p44/42 MAPK (Erk1/2) (Cell Signaling Technology, 9102S). […] Protein bands were visualized using enhanced chemiluminescent substrate (Thermo Scientific, 32132, ECL Plus) and imaged with a charge-coupled device camera (G:BOX, Syngene).

[1] = test system: spine density of neuronal cultures; assay: Spinogenesis in mature neuronal cultures (WT and Y433F^+/−); format: cell-based, mouse; design: 6d: Mean (spinogenesis, spine density) / 6e: Mean (spinogenesis, spine density): unit not given here; settings: for 6e: Mean (spinogenesis, spine density): Vehicle:Vehicle mean 7.05; for spine density: cultures from WT mice, 24 h, 100 nM
Procedure: Spinogenesis experiments were performed similarly to previous studies[12],[13] with modifications. […] In a separate set of experiments to study the effects of extracellular BDNF and 5-HT2A activation, cultures were also pretreated for 10 min with TrkB.FC (200 ng ml^−1) or M100907 (100 nM), respectively. TrkB.FC and M100907 remained in the medium for the rest of the experiment. Twenty-four hours later, coverslips were fixed with 4% PFA, washed with PBS, incubated with blocking buffer (0.1% Triton X-100, 0.05% Tween-20, 10% normal donkey serum, 1% BSA and 0.1% gelatin in PBS) for 1 h at room temperature and then overnight with rabbit anti-MAP2 (Invitrogen, PA5-17646; 1:100) primary antibody at 4 °C. After washing with PBS, coverslips were incubated with CF568-conjugated donkey anti-rabbit (Biotium, 20098; 1:500) for 1 h at room temperature. Another round of PBS washes was followed by incubation with Alexa Fluor 647-conjugated phalloidin (Invitrogen, A22287; 1:40) overnight at 4 °C. Next, coverslips were briefly washed in phosphate buffer (PB) and mounted on slides with ProLong Glass Antifade Mountant (Invitrogen, P36982). We used a Zeiss LSM 880 confocal microscope with an AiryScan GaAsP detector equipped with a PlanApochromat 63×/1.4 NA objective. We used the BP 495–550 + LP 570 AiryScan filter and Zen Black in super-resolution mode for image acquisition. Pinhole size was adapted accordingly, and frame size was set to optimal. Sensors were set to continuous adjustment across the imaging sessions to ensure optimal sensor alignment and signal detection. Raw data were processed into AiryScan images with the autofilter mode on using Zen Blue. Finally, image analysis was performed in ImageJ by experimenters blinded for treatment and genotype. Spines were quantified in 15-µm-long dendrite sections.

TrkB = molecular target: T3, TrkB (Rattus norvegicus, UniProt Q63604); assay: Competition binding with biotinylated R,R-HNK; settings: ext fig 1g
T3 construct: expressed in transfected cells; host or cells: HEK293T
Procedure: Binding assays were performed as previously described with minor modifications. […] Samples from mouse embryo (E18) brains were also lysed, vortexed, sonicated and centrifuged for binding assays. Plates were then washed with PBS. […] For the competition binding assays with biotinylated R,R-HNK, the amino-biotinylation of R,R-HNK was performed using a commercial kit (Thermo Scientific, EZ-Link NHS-PEG4 Biotinylation Kit, 21455) and the reaction monitored by MS. A mixture of biotinylated R,R-HNK (10 µM) and unlabeled compounds (1 pM to 10 µM) in PBS was added to the 96-well plates containing the immunoprecipitated TrkB and incubated for 1 h at room temperature. […] Luminescence was determined via streptavidin conjugated with horseradish peroxidase (HRP; Thermo Fisher Scientific, 21126; 1:5,000, 1 h at room temperature) in reaction with the Pierce ECL substrate (Thermo Fisher Scientific, 32106). Luminescence from blank wells that contained all reagents but the sample lysates was used to determine nonspecific binding. To obtain the binding curves, results from binding assays were fitted to the equation of specific binding with Hill slope from GraphPad Prism 9.2. To calculate koff values, results were fitted to the equation of dissociation of one phase exponential decay from GraphPad Prism 9.2.

[2] = Y433F+/- neurons, vehicle mean 6.55
[3] = Y433F+/-:vehicle minus Y433F+/-:treatment

T1 sequence (Q63604 32-821 Y433F): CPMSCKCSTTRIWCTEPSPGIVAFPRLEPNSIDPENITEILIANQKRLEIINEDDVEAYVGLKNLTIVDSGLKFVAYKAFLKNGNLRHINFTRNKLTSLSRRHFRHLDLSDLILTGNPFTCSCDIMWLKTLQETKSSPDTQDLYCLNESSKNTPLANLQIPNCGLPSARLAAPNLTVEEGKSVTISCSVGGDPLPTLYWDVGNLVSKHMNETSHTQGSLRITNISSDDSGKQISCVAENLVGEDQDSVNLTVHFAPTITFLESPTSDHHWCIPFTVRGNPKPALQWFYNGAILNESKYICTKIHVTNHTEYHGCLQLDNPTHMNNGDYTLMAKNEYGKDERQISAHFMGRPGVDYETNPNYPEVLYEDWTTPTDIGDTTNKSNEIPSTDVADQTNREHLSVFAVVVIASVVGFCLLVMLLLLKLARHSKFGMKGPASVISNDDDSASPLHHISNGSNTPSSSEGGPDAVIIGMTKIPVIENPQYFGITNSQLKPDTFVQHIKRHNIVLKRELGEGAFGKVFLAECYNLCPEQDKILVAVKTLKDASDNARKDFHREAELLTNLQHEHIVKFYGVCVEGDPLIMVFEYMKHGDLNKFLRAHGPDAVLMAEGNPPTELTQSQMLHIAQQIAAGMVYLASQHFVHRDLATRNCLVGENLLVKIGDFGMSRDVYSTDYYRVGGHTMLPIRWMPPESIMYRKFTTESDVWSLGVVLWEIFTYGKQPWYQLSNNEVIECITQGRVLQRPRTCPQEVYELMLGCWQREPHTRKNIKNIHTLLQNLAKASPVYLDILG
T2 sequence (Q63604 32-821): as the sequence (Q63604 32-821 Y433F) above, with F402Y counted along it
T3 sequence (Q63604 32-821): as the sequence (Q63604 32-821 Y433F) above, with F402Y counted along it

CCN(CC)C(=O)C1C=C2c3cccc4[nH]cc(c34)CC2N(C)C1 (centres unmarked) [LSD, lysergic acid diethylamide]
Bmax (best-fit, 1c/1d) (GFP-tagged TrkB Y433F): ~ 430.4 | h (best-fit, 1c/1d) (GFP-tagged TrkB Y433F): 1.157 | binding by MST (GFP-tagged TrkB Y433F): but not to Y433F | h (best-fit, 1c/1d) (eGFP-tagged TrkB (WT)): 0.8476 | Bmax (best-fit, 1c/1d) (eGFP-tagged TrkB (WT)): ~ 566372 | binding by MST (eGFP-tagged TrkB (WT)): directly bind to native TrkB | Bmax (best-fit, 1c/1d) (GFP-tagged TrkA.TM): ~ 12873 | h (best-fit, 1c/1d) (GFP-tagged TrkA.TM): 1.641 | phosphorylation of ERK (pERK) (pERK; LSD 100 nM): rapidly increases phosphorylation of ERK (pERK) | pERK, group mean (5d) (pERK; LSD 100 nM, 5 min, vehicle 100): 167.8 | pERK, group mean (5d) (pERK; LSD 100 nM, 1 h, vehicle 100): 200.7 | pERK, group mean (5d) (pERK; LSD 100 nM, 24 h, vehicle 100): 100.4 | pERK, group mean (5e) (pERK; M100907:LSD (LSD after M100907 pretreatment), vehicle 100): 313.5 | pERK, group mean (5e) (pERK; Vehicle:LSD, vehicle 100): 268.1 | pERK, column mean over timepoints (5d) (pERK; mean of 5 min, 1 h, 24 h, vehicle 100): 156.3 | pERK, column mean of LSD (5e) (pERK; over vehicle and M100907 pretreatment, mean of vehicle 104): 290.8 | 6e: Mean Diff. (Vehicle:Vehicle vs. treatment), Bonferroni's multiple comparisons test ([1]; LSD together with M100907): -7.65 | 6e: Mean (spinogenesis, spine density) ([1]; LSD together with M100907): 14.7 | 6e: Mean Diff. (Vehicle:Vehicle vs. treatment), Bonferroni's multiple comparisons test ([1]; LSD together with TrkB.FC): 0.25 | 6e: Mean (spinogenesis, spine density) ([1]; LSD together with TrkB.FC): 6.8 | 6d: Mean (spinogenesis, spine density) ([1]; WT neurons, vehicle mean 5.7): 13 | 6d: Mean Diff. (vehicle vs. treatment), Bonferroni's multiple comparisons test ([1]; WT:vehicle minus WT:treatment): -7.3 | 6d: Mean (spinogenesis, spine density) [1, 2]: 7.5 | 6d: Mean Diff. (vehicle vs. treatment), Bonferroni's multiple comparisons test [1, 3]: -0.95 | spine density [1]: increase spine density | 6e: Mean Diff. (Vehicle:Vehicle vs. treatment), Bonferroni's multiple comparisons test ([1]; substance alone (with vehicle)): -7.6 | 6e: Mean (spinogenesis, spine density) ([1]; substance alone (with vehicle)): 14.65 | K (one phase decay, best-fit) (TrkB): 638387713 | Plateau (one phase decay, best-fit) (TrkB): 36.42 | Span (one phase decay, best-fit) (TrkB): 48.28 | Tau (one phase decay, best-fit) (TrkB): 1.57E-09 | Y0 (one phase decay, best-fit) (TrkB): 84.7

COc1cccc([C@H](O)C2CCN(CCc3ccc(F)cc3)CC2)c1OC [M100907]
effect of pretreatment on LSD-induced increase in pERK (pERK; M100907 100 nM): does not prevent LSD-induced increase in pERK | pERK, group mean (5e) (pERK; M100907:Vehicle (M100907 100 nM alone), vehicle 100): 108 | pERK, row mean of M100907 (5e) (pERK; over vehicle and LSD treatment, mean of vehicle row 184.0): 210.8 | effect of pretreatment on spinogenic effect of LSD ([1]; TrkB.FC 200 ng ml^−1 or M100907 100 nM): not M100907 prevented the spinogenic effect of LSD | 6e: Mean Diff. (Vehicle:Vehicle vs. treatment), Bonferroni's multiple comparisons test ([1]; substance alone (with vehicle)): -2.8 | 6e: Mean (spinogenesis, spine density) ([1]; substance alone (with vehicle)): 9.85

CN(C)CCc1c[nH]c2cccc(O)c12 [PSI, psilocin]
Bmax (best-fit, 1c/1d) (GFP-tagged TrkB Y433F): 49.04 | h (best-fit, 1c/1d) (GFP-tagged TrkB Y433F): 1.151 | binding by MST (GFP-tagged TrkB Y433F): but not to Y433F | h (best-fit, 1c/1d) (eGFP-tagged TrkB (WT)): 0.8209 | Bmax (best-fit, 1c/1d) (eGFP-tagged TrkB (WT)): ~ 268422 | binding by MST (eGFP-tagged TrkB (WT)): directly bind to native TrkB | Bmax (best-fit, 1c/1d) (GFP-tagged TrkA.TM): 151.3 | h (best-fit, 1c/1d) (GFP-tagged TrkA.TM): 1.115 | 6d: Mean (spinogenesis, spine density) ([1]; WT neurons, vehicle mean 5.7): 10.5 | 6d: Mean Diff. (vehicle vs. treatment), Bonferroni's multiple comparisons test ([1]; WT:vehicle minus WT:treatment): -4.8 | 6d: Mean (spinogenesis, spine density) [1, 2]: 7 | 6d: Mean Diff. (vehicle vs. treatment), Bonferroni's multiple comparisons test [1, 3]: -0.45 | spine density [1]: increase spine density | K (one phase decay, best-fit) (TrkB): 89050556 | Plateau (one phase decay, best-fit) (TrkB): 38.6 | Span (one phase decay, best-fit) (TrkB): 50.23 | Tau (one phase decay, best-fit) (TrkB): 1.12E-08 | Y0 (one phase decay, best-fit) (TrkB): 88.84
